Data: patent US7396837B2, “Antitumoral analogs of lamellarins” (Pharma Mar, S.A.U., priority 2002, dated 2008)

Assays:
Assay type in all cases: cell-based
LNCaP = assay: SRB colorimetric cell growth inhibition assay, LNCaP; details: Homo sapiens, LNCaP
In short: (§1)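 Sulforhodamine B colorimetric readout measured cell growth and viability after continuous compound exposure of human cancer cell lines in 96-well plates. Triplicate wells gave mean ± SD, from which growth inhibition (GI), cytostatic total growth inhibition (TGI) and cytotoxic cell killing (LC) were calculated.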

DU-145 = assay: SRB colorimetric cell growth inhibition assay, DU-145; details: Homo sapiens
In short: as §1

IGROV = assay: SRB colorimetric cell growth inhibition assay, IGROV; details: Homo sapiens, IGROV
In short: as §1

SK-MEL-28 = assay: SRB colorimetric cell growth inhibition assay, SK-MEL-28; details: Homo sapiens
In short: as §1

[1] = SRB colorimetric cell growth inhibition assay, H-MEC-1; details: human, LC50 H-MEC-1
Excerpt: (§2) Inhibition of Cell Growth by Colorimetric Assay.
(§3) A colorimetric type of assay, using sulforhodamine B (SRB) reaction has been adapted for a quantitative measurement of cell growth and viability (following the technique described by P. A. Skehan, et al., J. Natl. Cancer Inst. 1990, 82, 1107-1112).
(§4) This form of assay employs 96 well cell culture microplates of 9 mm diameter (T. Mosmann et al., J. of Immunological Methods 1983, 65, 55-63; G. T. Faircloth et al., J. of Tissue and Culture Methods 1988, 11, 201-205).
(§5) Most of the cell lines are obtained from American Type Culture Collection (ATCC) derived from different human cancer types.
(§6) The values for mean +/− SD of data from triplicate wells are calculated. Some parameters for cellular responses can be calculated: GI=growth inhibition, TGI=total growth inhibition (cytostatic effect) and LC=cell killing (cytotoxic effect).

H-MEC-1 = assay: as above; details: Homo sapiens, HMEC-1, H-MEC-1
Excerpt: as §2, §3, §4, §5, §6

LoVo = assay: SRB colorimetric cell growth inhibition assay, LoVo; details: Homo sapiens, LoVo
In short: as §1

LoVo-Dox = assay: SRB colorimetric cell growth inhibition assay, LoVo-Dox (MDR); details: Homo sapiens
In short: as §1

A-549 = assay: SRB colorimetric cell growth inhibition assay, A-549; details: Homo sapiens
In short: as §1

PANC-1 = assay: SRB colorimetric cell growth inhibition assay, PANC-1; details: Homo sapiens
In short: as §1

IGROV-ET = assay: SRB colorimetric cell growth inhibition assay, IGROV-ET (ET-743 resistant); details: Homo sapiens
In short: as §1

HT-29 = assay: SRB colorimetric cell growth inhibition assay, HT-29; details: Homo sapiens
In short: as §1

K-562 = assay: SRB colorimetric cell growth inhibition assay, K-562; details: Homo sapiens
In short: as §1

## COc1cc(-c2c3n(c4c(=O)oc5cc(OC(=O)[C@@H](N)C(C)C)c(OC)cc5c24)CCc2c-3cc(OC)c(OC)c2OC(=O)[C@@H](N)C(C)C)ccc1OC(=O)[C@@H](N)C(C)C [Compound 128]
LNCaP; LN-caP, GI=growth inhibition, read-out: GI50 LN-caP
  GI50: 1260 nM
LNCaP; LN-caP, TGI=total growth inhibition (cytostatic effect), read-out: TGI LN-caP
  IC (TGI): 2.69 µM
LNCaP; read-out: LC50 LN-caP, LN-caP, LC=cell killing (cytotoxic effect)
  CC50: 5.71 µM
DU-145; DU-145, DU-145, GI=growth inhibition, read-out: GI50 DU-145
  GI50: 1330 nM
DU-145; DU-145, DU-145, TGI=total growth inhibition (cytostatic effect), read-out: TGI DU-145
  IC (TGI): 2.48 µM
DU-145; DU-145, read-out: LC50 DU-145, DU-145, LC=cell killing (cytotoxic effect)
  CC50: 4.62 µM
IGROV; read-out: LC50 IGROV, IGROV, LC=cell killing (cytotoxic effect)
  CC50: 5.7 µM
IGROV; GI=growth inhibition, read-out: GI50 IGROV
  GI50: 639 nM
IGROV; TGI=total growth inhibition (cytostatic effect), read-out: TGI IGROV
  IC (TGI): 1.98 µM
SK-MEL-28; SK-MEL-28, MEL-28, GI=growth inhibition, read-out: GI50 MEL-28
  GI50: 1570 nM
SK-MEL-28; SK-MEL-28, MEL-28, TGI=total growth inhibition (cytostatic effect), read-out: TGI MEL-28
  IC (TGI): 3.03 µM
SK-MEL-28; SK-MEL-28, read-out: LC50 MEL-28, MEL-28, LC=cell killing (cytotoxic effect)
  CC50: 5.86 µM
[1]
  CC50: 6.53 µM
H-MEC-1; GI=growth inhibition
  GI50: 1530 nM
H-MEC-1; TGI=total growth inhibition (cytostatic effect), read-out: TGI H-MEC-1
  IC (TGI): 3.16 µM
LoVo; read-out: LC50 LOVO, LOVO, cell killing (cytotoxic effect)
  CC50: 4.3 µM
LoVo; GI=growth inhibition, read-out: GI50 LOVO
  GI50: 854 nM
LoVo; total growth inhibition (cytostatic effect), read-out: TGI LOVO
  IC (TGI): 1.92 µM
LoVo-Dox; LOVO-DOX, GI=growth inhibition, read-out: GI50 LOVO-DOX
  GI50: 403 nM
LoVo-Dox; LOVO-DOX, total growth inhibition (cytostatic effect), read-out: TGI LOVO-DOX
  IC (TGI): 1.49 µM
LoVo-Dox; read-out: LC50 LOVO-DOX, LOVO-DOX, cell killing (cytotoxic effect)
  CC50: 4.66 µM
A-549; A549, A-549, GI=growth inhibition, read-out: GI50 A-549
  GI50: 1610 nM
A-549; A549, A-549, total growth inhibition (cytostatic effect), read-out: TGI A-549
  IC (TGI): 3.23 µM
A-549; A549, read-out: LC50 A-549, A-549, cell killing (cytotoxic effect)
  CC50: 6.45 µM
PANC-1; PANC-1, PANC-1, GI=growth inhibition, read-out: GI50 PANC-1
  GI50: 888 nM
PANC-1; PANC-1, PANC-1, total growth inhibition (cytostatic effect), read-out: TGI PANC-1
  IC (TGI): 2.31 µM
PANC-1; PANC-1, read-out: LC50 PANC-1, PANC-1, cell killing (cytotoxic effect)
  CC50: 5.99 µM
IGROV-ET; IGROV-ET, GI=growth inhibition, read-out: GI50 IGROV-ET
  GI50: 689 nM
IGROV-ET; IGROV-ET, TGI=total growth inhibition (cytostatic effect), read-out: TGI IGROV-ET
  IC (TGI): 2.26 µM
IGROV-ET; read-out: LC50 IGROV-ET, IGROV-ET, LC=cell killing (cytotoxic effect)
  CC50: 7.59 µM
HT-29; HT-29, HT-29, GI=growth inhibition, read-out: GI50 HT-29
  GI50: 1950 nM
HT-29; HT-29, HT-29, total growth inhibition (cytostatic effect), read-out: TGI HT-29
  IC (TGI): 3.54 µM
HT-29; HT-29, read-out: LC50 HT-29, HT-29, cell killing (cytotoxic effect)
  CC50: 6.44 µM
K-562; K562, K-562, GI=growth inhibition, read-out: GI50 K-562
  GI50: 1110 nM
K-562; K562, K-562, total growth inhibition (cytostatic effect), read-out: TGI K-562
  IC (TGI): 2.98 µM
K-562; K562, read-out: LC50 K-562, K-562, cell killing (cytotoxic effect)
  CC50: 8.01 µM
